# According to article PMC8538513, “Inhibition of Matrix Metalloproteinases and Cancer Cell Detachment by Ru(II) Polypyridyl Complexes Containing 4,7-Diphenyl-1,10-phenanthroline Ligands—New Candidates for Antimetastatic Agents” (Pharmaceuticals, 2021):
# Experiments:
# A549 cells [1] = assay: Cytotoxicity, MTT assay; type: cell-based, human
# Method: In vitro studies were conducted using human lung adenocarcinoma A549 cell line. Cells were routinely cultured in Dulbecco’s Modified Eagle Medium (DMEM, Corning, Corning, NY, USA) supplemented with 10% fetal bovine serum (FBS, Eurx, Gdańsk, Poland) (v/v) and 1% penicillin-streptomycin (100 units/mL–100µg/mL, Corning) (v/v) and incubated at 37 °C in humidified atmosphere with 5% CO2 (v/v). The cytotoxicity of the Ru(II) complexes was evaluated using MTT assay (Sigma-Aldrich). Cells were seeded into 96-well plate with the density of 3 × 10^4 cells per cm^2 in complete medium and cultured for 24 h. Then medium was removed and various concentrations of the studied compounds in basic medium were added. The final DMSO concentration in cell culture was fixed at 0.1% (v/v). […] After the incubation, MTT was removed, and the formed violet formazan crystals were dissolved in the 100 µL of DMSO:methanol (1:1) mixture. […] Experiments were performed in triplicates and repeated three times.
# MMP-2 = target: T1, MMP-2 (Homo sapiens, UniProt P08253); assay: MMP-2 inhibition, fluorogenic substrate FS-6; type: biochemical; details: [FS-6] = 2.5 µM, [enzyme] = 0.5 nM, 0.1 M Tris, pH 7.4, 37 °C; n.i. = no inhibition in the studied range (>> 25 µM, for NAMI-A >> 600 µM)
# T1 construct: purchased Sigma-Aldrich
# T1 sequence (P08253 110-660): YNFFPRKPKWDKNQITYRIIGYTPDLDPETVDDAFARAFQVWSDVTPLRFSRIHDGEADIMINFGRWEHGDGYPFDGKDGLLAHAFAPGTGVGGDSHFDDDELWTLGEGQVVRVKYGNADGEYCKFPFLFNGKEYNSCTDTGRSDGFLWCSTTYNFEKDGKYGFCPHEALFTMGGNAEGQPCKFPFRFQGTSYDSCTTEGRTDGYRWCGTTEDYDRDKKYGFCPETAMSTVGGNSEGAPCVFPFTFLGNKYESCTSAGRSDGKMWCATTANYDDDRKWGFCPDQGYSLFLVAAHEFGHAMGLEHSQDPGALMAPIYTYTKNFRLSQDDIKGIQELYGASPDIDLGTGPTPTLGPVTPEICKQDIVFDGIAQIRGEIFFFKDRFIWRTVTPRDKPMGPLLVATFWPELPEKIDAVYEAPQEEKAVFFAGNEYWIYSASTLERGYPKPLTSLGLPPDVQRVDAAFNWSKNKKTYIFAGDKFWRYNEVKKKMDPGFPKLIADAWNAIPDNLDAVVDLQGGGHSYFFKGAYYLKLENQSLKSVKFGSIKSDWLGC
# Method: (§1) MMP-9 and MMP-2 were activated at 4 °C using 1 mM APMA overnight before the experiments. MMP-2 and MMP-9 assays were performed in 0.1 M Tris/HCl (pH 7.4, 37 °C) enriched with 0.1 M NaCl, 10 mM CaCl2, 0.1 mM ZnCl2 and 0.05% Brij35. […] Kinetic fluorescence measurements were performed using a Perkin Elmer LS55 spectrofluorimeter (λex/λem = 325/400 nm). The obtained fluorescence intensities were corrected due to inner filter effect according to the following equation [31]: […] where Fobs denotes the measured fluorescence intensity, while Aλem and Aλex are the absorbance of sample at emission and excitation wavelengths.
# (§2) The enzyme activity in the presence of inhibitors was expressed as a fraction of initial reaction rate (vi/v0 ratio, v0—initial reaction rate, vi—initial reaction rate in the presence of inhibitor). IC50 parameters were calculated from a dose-response plot of enzyme fractional activity as a function of inhibitor concentration, using the Hill equation (OriginPro2018). Experiments were repeated three times and results are presented as mean values and standard deviation of the mean.
# A549 cells [2] = assay: Cellular uptake of ruthenium (ICP-MS); type: cell-based, human; details: 1 µM complex, 24 h
# Method: For cellular uptake A549 cells were seeded in a 6-well plate with the density of 4 × 10^4 cells per cm^2 in complete medium and cultured for 24 h. […] Any dead cells were eliminated by washing cells’ monolayer with PBS. Subsequently, the incubated cells were washed, detached by trypsin treatment and counted. The cells were isolated by centrifugation and digested in concentrated nitric acid overnight at room temperature. The solutions were diluted with Millipore water to a final nitric acid concentration of 2%. The Ru content in the samples was measured by inductively coupled plasma mass spectrometry (ICP-MS) using NexION 2000C (Perkin Elmer). Experiments were repeated three times. Results were calculated as ruthenium concentration per cell and presented as mean values and standard deviation of mean. Similarly, the content of Ru ions was measured in subcellular fraction obtained as described in chapter 4.5.
# A549 cells [3] = assay: Trypsin resistance assay (cell adherence); type: cell-based, human
# Method: Cells susceptibility to detachment upon incubation with the studied compounds was evaluated by checking their resistance to trypsin treatment. Cells were seeded into 96-well plate with the density of 3 × 10^4 cells per cm^2 in complete medium and cultured for 24 h. Then, cells were incubated with various concentrations of the studied compounds for 24 h. Subsequently, the cells were washed and 30 µL trypsin solution (0.05%) was added to each well for 10 min incubation at 37 °C. Next, cells were washed with PBS and Alamar Blue assay was performed to quantify adherent cells. The received results were normalized with appropriate wells without the trypsin treatment to exclude the possible toxicity of the studied compounds and presented as a percentage of control (untreated) cells. Experiments were performed in triplicates and each experiment was repeated five times to obtain mean values and standard error of the mean.
# MMP-9 [4] = target: T2, MMP-9 (Homo sapiens, UniProt P14780); assay: MMP-9 inhibition, fluorogenic substrate FS-6; type: biochemical; details: [FS-6] = 2.5 µM, [enzyme] = 0.5 nM, 0.1 M Tris, pH 7.4, 37 °C, fluorescence assay; n.i. = no inhibition in the studied range (>> 25 µM, for NAMI-A >> 600 µM)
# T2 construct: purchased Sigma-Aldrich
# Method: as §1, §2
# A549 cells [5] = details: cited from earlier work
# MMP-9 [6] = assay: Western blot, expression of the active form of MMP-9; type: cell-based, human; details: A549 cells, 24 h, 100 µM, normalized to β-actin
# Method: A549 cells were seeded in a 25 cm^2 flask with the density of 1.25 × 10^6 cells per flask in complete medium and cultured for 24 h. […] After the incubation, cells were washed with ice-cold PBS and lysed using RIPA buffer containing Halt proteases inhibitor cocktail (Thermo Fisher Scientific). Protein samples (the same concentration per lane) were separated on a 12% sodium dodecyl sulfate polyacrylamide gel. PageRuler™ Prestained Protein Ladder (Thermo Fisher Scientific) was used to determine approximate molecular weights of resolved proteins. Electrophoresis was performed through the stacking gel for 25 min at 60 V and resolving gel for 50 min at 170 V at room temperature using a PowerPac™ Basic Power Supply (Bio-Rad, Inc., Hercules, CA, USA). […] Reactive protein was detected after membrane was washed three times in TBST using GE Healthcare Amersham™ ECL Prime Western Blotting Detection Reagent (GE Healthcare Inc., Chicago, IL, USA). Only one protein was detected at a time, each membrane was stripped in 0.2 M NaOH over 20 min, washed three times in water and blocked again before proceeding with another primary antibody. Data were collected by ChemiDoc XRS+ Imaging System (Bio-Rad, Inc., Hercules, CA, USA) and analyzed with Image Lab v. […]
# B16F10 melanoma cells = test system: B16F10 melanoma cells; design: method as in PMID 16368900; details: 100 µM; cited from earlier work
# T2 sequence (P14780 107-707 limits assumed): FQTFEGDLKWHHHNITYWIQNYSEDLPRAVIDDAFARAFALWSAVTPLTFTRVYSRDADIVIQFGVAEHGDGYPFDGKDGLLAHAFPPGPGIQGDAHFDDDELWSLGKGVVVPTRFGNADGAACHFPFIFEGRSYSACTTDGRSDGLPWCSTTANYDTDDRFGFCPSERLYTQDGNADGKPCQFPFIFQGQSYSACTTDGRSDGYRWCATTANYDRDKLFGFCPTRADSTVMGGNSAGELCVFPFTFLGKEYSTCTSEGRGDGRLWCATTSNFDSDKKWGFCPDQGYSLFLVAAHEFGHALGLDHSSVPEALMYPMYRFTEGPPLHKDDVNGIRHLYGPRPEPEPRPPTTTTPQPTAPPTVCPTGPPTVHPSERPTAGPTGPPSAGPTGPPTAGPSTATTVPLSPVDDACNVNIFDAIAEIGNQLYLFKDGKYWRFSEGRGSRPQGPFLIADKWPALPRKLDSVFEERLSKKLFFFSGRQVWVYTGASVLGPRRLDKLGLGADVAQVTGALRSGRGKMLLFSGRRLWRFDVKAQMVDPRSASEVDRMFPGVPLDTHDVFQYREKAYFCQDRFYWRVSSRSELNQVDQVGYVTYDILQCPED
structure (smiles),measurement,setting,value
[Ru+2].c1ccc(-c2ccnc3c2ccc2c(-c4ccccc4)ccnc23)cc1.c1ccc(-c2ccnc3c2ccc2c(-c4ccccc4)ccnc23)cc1.c1ccc(-c2ccnc3c2ccc2c(-c4ccccc4)ccnc23)cc1 [[Ru(dip)3]^2+],Cytotoxicity (IC50),"A549 cells [1]; 24 h incubation, MTT",most cytotoxic compound
same,IC50,MMP-2,8.3 ± 1.1 µM
same,Increase of ruthenium concentration in a cell (uptake),A549 cells [2],highest uptake by cells
same,Effect on cell adhesion / cell detachment (in words),"A549 cells [3]; 24 h, non-toxic concentrations, effect seen from 1 µM",high activity in inhibiting of cell detachment
same,IC50,MMP-9 [4],4.1 ± 1.6 µM
N.N.[Cl][Pt][Cl] [cisplatin],IC50,A549 cells [5],70 µM
"CS(C)=O.[Cl-].[Cl-].[Cl-].[Cl-].[Ru+3].c1c[nH+]c[nH]1.c1c[nH]cn1 [NAMI-A, trans-[tetrachlorido(1H-imidazole)(S-dimethylsulphoxide)ruthenate(III)]]",IC50 for MMP-2,MMP-2,no inhibitory properties and n.i.
same,Reduction of expression of active MMP-9,MMP-9 [6],43%
same,Cell adherence (adhesion strength) compared to control,A549 cells [3]; NAMI-A 100 µM,ca. 250%
same,Adhesion strength vs. control,B16F10 melanoma cells,up to 162 % vs. control
same,IC50 for MMP-9,MMP-9 [4],no inhibitory properties and n.i.
CNC(=O)[C@H](Cc1c[nH]c2ccccc12)NC(=O)[C@@H](CC(=O)NO)CC(C)C [GM6001],Toxicity at the concentration used,A549 cells [1]; 1–8 µM,non-toxic concentration
same,Effect on cell adhesion properties (in words),A549 cells [3]; GM6001 1–8 µM,no alteration in cell adhesion properties was observed
[Ru+2].c1ccc(-c2ccccn2)nc1.c1ccc(-c2ccnc3c2ccc2c(-c4ccccc4)ccnc23)cc1.c1ccc(-c2ccnc3c2ccc2c(-c4ccccc4)ccnc23)cc1 [[Ru(dip)2(bpy)]^2+],IC50,MMP-2,22.5 ± 2 µM
same,IC50,MMP-9 [4],6.2 ± 2.8 µM
